{
  "source": "PubChem BioAssay AID1259409",
  "about": "(Chemical Carcinogenesis Research Information System (CCRIS), 2018)",
  "origin": "cited, not measured here",
  "test_system": "rodent chemically induced tumor inhibition, incidence and multiplicity",
  "assay": "CCRIS tumor inhibitor studies",
  "note": "Where a SMILES comes first, the peptide text is derived from it.",
  "data": [
    {"compound": "CCc1cccc2c3c([nH]c12)C(CC)(CC(=O)O)OCC3", "note": "(configuration not stated)", "values": [
      {"measurement": "tumour outcome (control, treated, inhibition, significance)", "setting": "Carcinogen: N-NITROSOBIS(2-HYDROXYPROPYL)AMINE, 53609-64-6, Dose [Inhibitor]: 0, 0.015% IN DIET FOR 8 WK BEGINNING POST CARCINOGEN TREATMENT (STUDY DURATION: 20 WK), Route [Inhibitor]: ORAL, Species: RAT, Strain/Sex: WISTAR/MALE, Target Tissue: Type of Lesion: LUNG: ADENOCARCINOMA, Dose [Carcinogen]: 2,000 PPM IN DRINKING WATER FOR 12 WK, Promoter: NONE", "value": "60%, 46%, 23%, not calculated"},
      {"measurement": "tumour outcome (control, treated, inhibition, significance)", "setting": "Carcinogen: N-NITROSOBIS(2-HYDROXYPROPYL)AMINE, 53609-64-6, Dose [Inhibitor]: 0, 0.015% IN DIET FOR 8 WK BEGINNING POST CARCINOGEN TREATMENT (STUDY DURATION: 20 WK), Route [Inhibitor]: ORAL, Species: RAT, Strain/Sex: WISTAR/MALE, Target Tissue: Type of Lesion: LUNG: SQUAMOUS CELL CARCINOMA, Dose [Carcinogen]: 2,000 PPM IN DRINKING WATER FOR 12 WK, Promoter: NONE", "value": "20%, 0%, 100%, not calculated"},
      {"measurement": "tumour outcome (control, treated, inhibition, significance)", "setting": "Carcinogen: N-NITROSOBIS(2-OXOPROPYL)AMINE [60599-38-4], Dose [Inhibitor]: 10 MG/KG BW ORALLY 3X A WEEK FOR 18 WK (STUDY DURATION: 22 WK), Route [Inhibitor]: ORAL, Species: HAMSTER, Strain/Sex: SYRIAN GOLDEN/FEMALE WITH BILIOENTEROSTOMY, Target Tissue: Type of Lesion: BILE DUCT: ADENOMA, Dose [Carcinogen]: 10 MG/KG BW EVERY 2 WK FOR 18 WK (STUDY DURATION: 22 WK)", "value": "15/17 (88%), 11/18 (61%), 31%, not significant"},
      {"measurement": "tumour outcome (control, treated, inhibition, significance)", "setting": "Carcinogen: N-NITROSOBIS(2-OXOPROPYL)AMINE [60599-38-4], Dose [Inhibitor]: 10 MG/KG BW ORALLY 3X A WEEK FOR 18 WK (STUDY DURATION: 22 WK), Route [Inhibitor]: ORAL, Species: HAMSTER, Strain/Sex: SYRIAN GOLDEN/FEMALE WITH BILIOENTEROSTOMY, Target Tissue: Type of Lesion: BILE DUCT: CARCINOMA, Dose [Carcinogen]: 10 MG/KG BW EVERY 2 WK FOR 18 WK (STUDY DURATION: 22 WK)", "value": "15/17 (88%), 6/18 (33%), 63%, p< 0.01"}
    ]},
    {"compound": "Cc1cc(=O)cc(C)o1", "values": [
      {"measurement": "tumour outcome (control, treated, inhibition, significance)", "setting": "Carcinogen: BENZO[A]PYRENE, 50-32-8, Dose [Inhibitor]: 0.034 MMOL/G IN DIET FOR 5 WK (STUDY DURATION: 21 WK), Route [Inhibitor]: ORAL, Species: MOUSE, Strain/Sex: ICR/FEMALE, Target Tissue: Type of Lesion: FORESTOMACH: TUMOR, Dose [Carcinogen]: 1 MG IN 0.2 ML CORN OIL 2/WK FOR 4 WK STARTING ON D 8 OF EXPERIMENT, Promoter: NONE USED", "value": "94%, 100%, -6%, not significant"}
    ]},
    {"compound": "C=CC(C)(O)CC/C=C(\\C)CCC=C(C)C", "note": "(configuration not stated)", "values": [
      {"measurement": "tumour outcome (control, treated, inhibition, significance)", "setting": "Carcinogen: AZOXYMETHANE, 25843-45-2, Dose [Inhibitor]: 0, 5 MG/G IN DIET FOR 22 WK BEGINNING 3 D POST LAST CARCINOGEN DOSE (STUDY DURATION: 25 WK), Route [Inhibitor]: ORAL, Species: RAT, Strain/Sex: F344/MALE, Target Tissue: Type of Lesion: DUODENUM: ADENOCARCINOMA, Dose [Carcinogen]: 15 MG/KG BW 2/WK FOR 3 WK, Promoter: NONE USED", "value": "50%, 26%, 48%, not significant"}
    ]},
    {"compound": "CC(=O)[C@H]1CC[C@H]2[C@@H]3CCC4=CC(=O)CC[C@]4(C)[C@H]3CC[C@]12C", "values": [
      {"measurement": "tumour outcome (control, treated, inhibition, significance)", "setting": "Carcinogen: 7,12-DIMETHYLBENZ[A]ANTHRACENE, 57-97-6, Dose [Inhibitor]: 0, 1 MG/100 G BW 3/WK FOR 150 D BEGINNING POST CARCINOGEN TREATMENT (STUDY DURATION: 150 D), Route [Inhibitor]: SUBCUTANEOUS, Species: RAT, Strain/Sex: WISTAR/FEMALE, Target Tissue: Type of Lesion: MAMMARY GLAND: ADENOCARCINOMA, Dose [Carcinogen]: 4 MG IN 0.1 ML OF SESAME OIL INJECTED ONCE INTO THE EXPOSED MAMMARY TISSUE OF HYPERPROLACTINEMIC RATS ON DAY 73 OF AGE, Promoter: NONE USED", "value": "8/11 (73%), 5/11 (45%), 38%, p<0.05"},
      {"measurement": "tumour outcome (control, treated, inhibition, significance)", "setting": "Carcinogen: N-METHYL-N-NITROSOUREA, 684-93-5, Dose [Inhibitor]: 0, 2560 MG/KG IN DIET FOR THE DURATION OF STUDY BEGINNING 7 D PRIOR TO CARCINOGEN DOSE (STUDY DURATION: 187 D), Route [Inhibitor]: ORAL, Species: RAT, Strain/Sex: SPRAGUE-DAWLEY/FEMALE, Target Tissue: Type of Lesion: MAMMARY GLAND: TUMOR, Dose [Carcinogen]: 50 MG/KG BW ONCE, Promoter: NONE USED", "value": "100%, 95%, 5%, not significant"}
    ]},
    {"compound": "CC(C)=C1C=CC(O)CC1", "note": "(configuration not stated)", "values": [
      {"measurement": "tumour outcome (control, treated, inhibition, significance)", "setting": "Carcinogen: 7,12-DIMETHYLBENZ[A]ANTHRACENE, 57-97-6, Dose [Inhibitor]: 0, 12 NMOL PER REPEATED APPLICATION FOR 20 WK (STUDY DURATION: 20 WK), Route [Inhibitor]: DERMAL, Species: MOUSE, Strain/Sex: CD-1/FEMALE, Target Tissue: Type of Lesion: SKIN: TUMOR, Dose [Carcinogen]: 100 UG ONCE, Promoter: OKADAIC ACID, 78111-17-8", "value": "87%, 67%, 23%, not calculated"}
    ]},
    {"compound": "CCCCCCCCCCCCCCCCCCCCCC(O)CC(O)CCCCC", "note": "(configuration not stated)", "values": [
      {"measurement": "tumour outcome (control, treated, inhibition, significance)", "setting": "Carcinogen: 7,12-DIMETHYLBENZ[A]ANTHRACENE, 57-97-6, Dose [Inhibitor]: 0, 2 UMOL APPLIED 30 MIN PRIOR TO EACH PROMOTER DOSE 2/WK FOR 20 WK BEGINNING 7 D POST CARCINOGEN DOSE (STUDY DURATION:, Route [Inhibitor]: DERMAL, Species: MOUSE, Strain/Sex: ICR/FEMALE, Target Tissue: Type of Lesion: SKIN: PAPILLOMA, Dose [Carcinogen]: 50 UG IN 100 µL ACETONE ONCE, Promoter: 12-O-TETRADECANOLYPHORBOL-13-ACETATE, 16561-29-8", "value": "93%, 20%, 78%, not significant"}
    ]},
    {"compound": "NCCCC[C@H](N)C(=O)N[C@@H](CCC(=O)O)C(=O)O", "note": "(H-Lys-Glu-OH)", "values": [
      {"measurement": "tumour outcome (control, treated, inhibition, significance)", "setting": "Carcinogen: N-BUTYL-N-(4-HYDROXYBUTYL)NITROSAMINE, 3817-11-6, Dose [Inhibitor]: 0, 30 UG/ANIMAL IN RIGHT THIGH DOES OF 1 UG/KG BW 1/D FOR 5 D WITH 4 WK INTERVALS FOR 6 MO (STUDY DURATION: 49 WK), Route [Inhibitor]: INTRAMUSCULAR, Species: RAT, Strain/Sex: ALBINO/MALE, Target Tissue: Type of Lesion: URINARY BLADDER: BENIGN TUMOR, Dose [Carcinogen]: 0.04% IN DRINKING WATER FOR FIRST 12 WK", "value": "13/49 (27%), 14/50 (28%), -4%, not calculated"},
      {"measurement": "tumour outcome (control, treated, inhibition, significance)", "setting": "Carcinogen: N-BUTYL-N-(4-HYDROXYBUTYL)NITROSAMINE, 3817-11-6, Dose [Inhibitor]: 0, 30 UG/ANIMAL IN RIGHT THIGH DOES OF 1 UG/KG BW 1/D FOR 5 D WITH 4 WK INTERVALS FOR 6 MO (STUDY DURATION: 49 WK), Route [Inhibitor]: INTRAMUSCULAR, Species: RAT, Strain/Sex: ALBINO/MALE, Target Tissue: Type of Lesion: URINARY BLADDER: IN SITU CARCINOMA, Dose [Carcinogen]: 0.04% IN DRINKING WATER FOR FIRST 12 WK", "value": "11/49 (22%), 4/50 (8%), 64%, not calculated"}
    ]}
  ]
}
